The text below walks through data of patent publication US20160206633A1, “dhS1P AND USE OF SAME AS AN ANTICANCER THERAPEUTIC AND IMMUNOMODULATOR” (Penn State Research Foundation, Inc., priority 2013, published 2016).

One experiment relates to isolated MDSC-like cells. The experiment in a line: Whole-genome RNA microarray of isolated MDSC-like cells after dhS1P. In kind it is cell-based, athymic nude mice. Particulars: 24 hours dhS1P vs vehicle (BSA); fold-change cut-off 1.2, p-value cut-off 0.05. As for the experimental part: To more closely evaluate the genetic consequences of the dhS1P-induced decrease in isolated MDSC-like cells and the increase in cells bearing the surface markers of B-cells, a RNA microarray analysis was conducted. MDSC-like cells were isolated from MDA-MB-231 tumor-bearing athymic nude mice, exposed for 24 hours to dhS1P or vehicle (BSA), followed by RNA extraction, and a whole-genome microarray was performed. As compared to vehicle-treated MDSC-like cells, dhS1P treatment of isolated MDSC-like cells altered the expression of a variety of genes.
Isolated MDSC-like cells were cultured for 24 hours in media containing BSA, or dhS1P ([…]), before collection and washing via centrifugation. […]
cDNA was purified according to standard procedures. cDNA was in vitro transcribed to synthesize cRNA using a MEGAscript kit (Ambion, Austin, Tex.). Samples were incubated with T7 10× reaction buffer, T7 Enzyme mix and Biotin-NTP mix at 37° C. for 14 hours. cRNA was purified according to instructions, and the yield was measured using a NanoDrop ND-1000 (NanoDrop Products, Wilmington, Del.). […] BeadChips were dried by centrifugation at 275×g for 4 minutes and subsequently scanned using a BeadArray Reader. […]

Experiment [1] has as its system murine Panc-02 pancreatic cancer cells. The experiment in a line: Injection of BSA-conjugated sphingolipids into mice with subcutaneous Panc-02 tumors. The experiment is classed as in vivo. The text has this:
(A) Splenic IMCs (Gr-1+CD11b+, also defined as MDSC: myeloid-derived suppressor cells) were isolated from subcutaneous human MDA-MB-231 breast tumor-bearing athymic nude mice, treated with or without dhS1P (to induce the expansion of CD19+CD45R B220+ cells: B-cells), and adoptively transferred into subcutaneous human MDA-MB-231 breast tumor-bearing athymic nude mice before monitoring tumor growth. ANOVA, **p<0.05 compared to PBS control, n≧6. (B) Splenic IMCs were isolated from orthotopic human BxPC-3 pancreatic tumor-bearing athymic nude mice, treated with or without dhS1P, and adoptively transferred into orthotopic human BxPC-3 pancreatic tumor-bearing athymic nude mice before monitoring survival. Logrank test, *p<0.05, n=5. (C) Tumor growth following BSA (lipid carrier control), sphingosine-1-phosphate (S1P), or dhS1P injection every other day, was monitored in C57BL/6J mice engrafted with subcutaneous murine Panc-02 pancreatic cancer cells. ANOVA, **p<0.05 compared to BSA control, n≧6.
Orthotopic pancreatic cancer and subcutaneous breast cancer tumors were established in athymic nude, NOD.CB17-Prkdcscid/J, BALB/cJ, or C57BL/6J mice as previously described (8, 9), with minor modifications. All cell lines used in animal and cellular studies, prior to any modification, were originally obtained from the American Type Culture Collection (Manassas, Va.). For orthotopic BxPC-3-GFP human pancreatic cancer xenografts, 4-6 week old female athymic mice were fully anesthetized with a mixture of ketamine-HCl (129 mg/kg) and xylazine (4 mg/kg) injected intramuscularly. A small incision was made in the left flank, the peritoneum was dissected and the pancreas exposed. Using a 27-gauge needle, 2.5×10^6 cells, prepared in 0.1 mL of Hank's balanced salt solution, were injected into the pancreas. For experimental lung-metastatic osteosarcoma xenografts, 4-6 week old female athymic nude mice were tail vein-injected with 2.5×10^6 human SAOS-2-LM7 cells. […] Tumor size was measured by caliper measurement. […]

As to `CCCCCCCCCCCCCCC[C@@H](O)[C@@H](N)COP(=O)(O)O` [dhS1P, dihydrosphingosine-1-phosphate], the “Number of significantly regulated genes” value in the experiment on isolated MDSC-like cells is 319. In experiment [1] (direct injections into pancreatic tumor-bearing mice), the Life expectancy result is “improved”. Further, in experiment [1] (subcutaneous Panc-02 in C57BL/6J mice, injection every other day, 0.1 mL of 100 μM, BSA carrier), the Tumor growth result was “therapeutic effect”.
